Laboratory results from PubChem BioAssay (NCI).
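Cultured in 96-well plates, cells were exposed to test compound for 48 hours across five concentrations. Here, GI50 denotes the concentration required for 50% inhibition of growth. Definition used: TGI = concentration required for complete inhibition of growth.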 Where a SMILES comes first, the peptide text is derived from it.

How the values were obtained:
Assay in all cases: NCI-60 cell line screen, 48 h
CCRF-CEM leukemia = system: CCRF-CEM leukemia
ACHN renal = system: ACHN renal
MDA-MB-231 breast = system: MDA-MB-231 breast
SR leukemia = system: SR leukemia
SK-MEL-5 melanoma = system: SK-MEL-5 melanoma
LOX IMVI melanoma = system: LOX IMVI melanoma
MCF7 breast = system: MCF7 breast
SNB-19 CNS = system: SNB-19 CNS
OVCAR-3 ovarian = system: OVCAR-3 ovarian
HOP-92 NSCLC = system: HOP-92 NSCLC

| SMILES | TGI (CCRF-CEM leukemia) [µM] | TGI (ACHN renal) [µM] | TGI (MDA-MB-231 breast) [µM] | TGI (SR leukemia) [µM] | TGI (SK-MEL-5 melanoma) [µM] | TGI (LOX IMVI melanoma) [µM] | TGI (MCF7 breast) [µM] | TGI (SNB-19 CNS) [µM] | TGI (OVCAR-3 ovarian) [µM] | TGI (HOP-92 NSCLC) [µM] | GI50 (HOP-92 NSCLC) [µM] |
| --- | --- | --- | --- | --- | --- | --- | --- | --- | --- | --- | --- |
| O=c1[nH]c2ccc(C(F)(F)F)cc2nc1-c1ccccc1 | > 100 | > 100 | > 100 | > 100 | > 100 | > 100 | > 100 | > 100 | > 100 | > 100 | – |
| CN(C)c1nc(N(C)C)nc(N(C)C)n1 | > 150 | > 150 | > 150 | > 150 | 136 | > 150 | > 150 | > 150 | > 143 | > 150 | – |
| CC(C)(C)OC(=O)[N+](=N)C(=O)C1CCC(=O)N1C(=O)OCc1ccccc1 (stereo not given) | > 100 | > 100 | > 100 | > 100 | > 100 | > 100 | > 100 | > 100 | > 100 | > 100 | – |
| Cc1ccc2c(c1)SSSSS2 | 17 | 34.9 | 59.1 | > 100 | 35.8 | 34.4 | 43 | 48 | 40.5 | 34.5 | – |
| O=c1c2ccccc2nc2n1NC(c1c(Cl)cccc1Cl)N2c1cccc(Cl)c1 (stereo not given) | > 100 | 12.5 | 9.94 | > 100 | 65.5 | > 100 | 5.2 | 18 | 54.2 | 21.8 | – |
| C=C1C(=O)O[C@@H]2[C@H]3O[C@]3(C)CCC=C(C)CC[C@@H]12 | 59.9 | – | – | – | 49.1 | 21.2 | 47.4 | 163 | 40.7 | 26.5 | – |
| CC(=O)OCC1OC(On2ccccc2=S)C(OC(C)=O)C(OC(C)=O)C1OC(C)=O (stereo not given) | 34.5 | > 100 | > 100 | – | > 100 | > 100 | > 100 | > 100 | > 100 | > 100 | – |
| CSC(SC)=C1CC(=O)Nc2ccccc2C1=O | 52.7 | > 100 | > 100 | > 100 | > 100 | 32.5 | > 100 | > 100 | > 100 | 78.4 | – |
| NC(=O)NC(=O)c1cnccn1 | > 100 | > 100 | > 100 | – | – | > 100 | > 100 | > 100 | > 100 | > 100 | – |
| CN(C)CCCNc1c(O)c2c(c(O)c1Cl)C(=O)C=CC2=O | 5.7 | > 10 | 7.77 | – | 2.82 | 3.13 | 3.22 | 4.67 | 6.6 | > 10 | – |
| Cc1cc2nc3n[nH]c(N)c3nc2cc1C | > 100 | > 100 | > 100 | > 100 | – | > 100 | > 100 | > 100 | – | > 100 | – |
| CC1NC(=O)CNC(=O)CNC(=O)C(Cc2ccc(O)cc2)NC(=O)C(C(C)C)NC(=O)C(C)NC1=O (stereo not given) (cyclo(GGAAVY); configuration not given here) | > 100 | – | – | – | > 100 | > 100 | > 100 | > 100 | > 100 | > 100 | > 100 |
| O=C(O)CC(C(=O)O)c1ccccc1[N+](=O)[O-] (stereo not given) | > 100 | > 100 | > 100 | – | > 100 | > 100 | > 100 | > 100 | > 100 | > 100 | – |
| O=C(NN=C1CCN(Cc2ccccc2)CC1)C(O)(c1ccccc1)c1ccccc1 | > 100 | – | > 100 | > 100 | > 100 | > 100 | > 100 | > 100 | – | > 100 | – |
| COc1ccc2c(c1)C(N)CC2=O (stereo not given) | > 100 | > 100 | > 100 | – | > 100 | – | > 100 | > 100 | > 100 | > 100 | – |
| CC1=C2C(O)C(C(C)C(=O)NCC(C)C)CCC2(C)C=CC1=O (stereo not given) | > 100 | – | – | – | > 100 | > 100 | > 100 | > 100 | > 100 | > 100 | – |
| C=C[C@@H]1OC(=O)O[C@H]1CO | > 100 | > 100 | > 100 | > 100 | > 100 | > 100 | > 100 | > 100 | > 100 | – | – |
| CC(C(=O)N1C(=O)N(C(=O)C(C)C(O)c2ccccc2)C(c2ccccc2)C1c1ccccc1)C(O)c1ccccc1 (stereo not given) | 32.2 | > 100 | 77.9 | 14.5 | – | 24.2 | > 100 | > 100 | 31.5 | 40.4 | – |
| O=c1c(O)c(-c2ccc(O)cc2O)oc2cc(O)cc(O)c12 | > 100 | > 100 | > 100 | – | > 100 | > 100 | > 100 | > 100 | > 100 | > 100 | – |
| CCCCCCCCCOC(=O)c1cnc(Cl)cn1 | > 100 | 33.5 | 35.6 | > 100 | 32.9 | 34.4 | 57.7 | 47.5 | – | > 100 | – |
| CCOC(=O)c1nc2cc(N3CCOCC3)c(F)cc2[nH]c1=O | > 100 | > 100 | > 100 | > 100 | > 100 | – | > 100 | > 100 | > 100 | > 100 | – |
| Cc1[nH]c2ncn3nc(C(Cl)(Cl)Cl)nc3c2c1Cc1ccccc1 | > 100 | > 100 | > 100 | – | > 100 | – | > 100 | > 100 | > 100 | – | – |
| CCCCCC(CN1CCOCC1)C(=O)/C=C/c1ccccc1 (stereo not given) | 6.72 | – | – | 8.5 | 3.42 | 2.67 | – | 13.2 | 8.64 | 8.54 | – |
